Results on 17 molecules are retold here after patent publication US10428017B2, “Modulators of the cystic fibrosis transmembrane conductance regulator protein and methods of use” (AbbVie S.à.r.l., priority 2017, dated 2019).

The assay concerns the target T1, F508delCFTR (Homo sapiens, UniProt P13569, DEL508-508).
T1 construct: expressed in transfected cells; host or cells: CFBE4lo-F508delCFTR-HRP cells (human lung derived epithelial cell line, doxycycline-inducible)
Kind of assay: Cell Surface Expression-Horse Radish Peroxidase (CSE-HRP) Assay. The class given is cell-based. The conditions noted are these: for EC50: CFBE4lo-F508delCFTR-HRP cells, 18-24 hours at 33° C.; for Emax / Maximum % activity (with co-corrector): maximum at any tested concentration (up to 20 μM), normalized to on-plate positive control (2 μM co-corrector); for Maximum % activity (with co-corrector): with co-corrector 2 μM. How it is done:
Cell Surface Expression-Horse Radish Peroxidase (CSE-HRP) Assay
A cellular assay for measuring the F508delCFTR cell surface expression after correction with test compounds either without or with a co-corrector (2 μM of 3-[(2R,4R)-4-({[1-(2,2-difluoro-1,3-benzodioxol-5-yl)cyclopropyl]carbonyl}amino)-7-methoxy-3,4-dihydro-2H-chromen-2-yl]benzoic acid), was developed in human lung derived epithelial cell line (CFBE4lo−) (Veit G et al, (2012) Mol Biol Cell. 23(21): 4188-4202). The development was achieved by expressing the F508delCFTR mutation along with a horseradish peroxidase (HRP) in the fourth exofacial loop, and then measuring the HRP activity using luminescence readout from these cells, CFBE4lo-F508delCFTR-HRP, that were incubated overnight with the test corrector compounds, either without or with the co-corrector. For this primary assay, the CFBE4lo-F508delCFTR-HRP cells were plated in 384-well plates (Greiner Bio-one; Cat 781080) at 4,000 cells/well along with 0.5 μg/mL doxycycline to induce the F508delCFTR-HRP expression and further incubated at 37° C., 5% CO2 for 72 hours. The test compounds were then added either without or with a co-corrector at the required concentrations and further incubated for 18-24 hours at 33° C. The highest concentration tested was 20 μM with an 8-point concentration response curve using a 3-fold dilution in both the test compound without or with the co-corrector. Three replicate plates were run to determine one EC50. All plates contained negative controls (dimethyl sulfoxide, DMSO) and positive control (2 μM of 3-[(2R,4R)-4-({[1-(2,2-difluoro-1,3-benzodioxol-5-yl)cyclopropyl]carbonyl}amino)-7-methoxy-3,4-dihydro-2H-chromen-2-yl]benzoic acid) as well as on-plate concentration response of the positive control. Post incubation, the plates were washed 5× times with Dulbecco's phosphate buffered saline (DPBS), followed by the addition of the HRP substrate, luminol (50 μL), and measuring the HRP activity using luminescence readout on EnVision® Multilabel Plate Reader (Perkin Elmer; product number 2104-0010). The raw counts from the experiment were analyzed using Accelrys® Assay Explorer v3.3.
Z′ greater than 0.5 was used as passing quality control criteria for the plates.
The Z′ is defined as: 1−[3*SDPositive Control+3*SDNegative Control/Absolute(Meanpostivie Control−MeanNegative Control)] wherein “SD” is standard deviation.
The % activity measured at each of the 8 test concentrations of the test compound added either without or with a co-corrector (2 μM of 3-[(2R,4R)-4-({[1-(2,2-difluoro-1,3-benzodioxol-5-yl)cyclopropyl]carbonyl}amino)-7-methoxy-3,4-dihydro-2H-chromen-2-yl]benzoic acid) was normalized to the on-plate positive control using the following formulae: % activity(Test compound without co-corrector)=[(test compound without co-corrector response−DMSO response)/(positive control response−DMSO response)]*100 % activity(Test compound with co-corrector)=[(test compound with co-corrector response−DMSO response)/(positive control response−DMSO response)]*100
The maximum % activity achieved for the test compound either without or with a co-corrector at any tested concentration is presented in Table 1 along with the respective EC50's calculated using the following general sigmoidal curve with variable Hill slope equation (described as Model 42 in the Accelrys® Assay Explorer v3.3 software): y=(a−d)/(1+(x/c)^b)+d
General sigmoidal curve with concentration, response, top, bottom, EC50 and Hill slope. This model describes a sigmoidal curve with an adjustable baseline, a. The equation can be used to fit curves where response is either increasing or decreasing with respect to the independent variable, “x”.
“x” is a concentration of drug under test.
“a” is the maximum response, and “d” is the minimum response
“c” is the inflection point (EC50) for the curve. That is, “y” is halfway between the lower and upper asymptotes when x=c.
“b” is the slope-factor or Hill coefficient. […]

[1] abbreviates: test compound without co-corrector, HRP luminescence readout, read-out: EC50 (without co-corrector).
[2] abbreviates: test compound without co-corrector.
[3] abbreviates: with co-corrector 2 μM 3-[(2R,4R)-4-({[1-(2,2-difluoro-1,3-benzodioxol-5-yl)cyclopropyl]carbonyl}amino)-7-methoxy-3,4-dihydro-2H-chromen-2-yl]benzoic acid, read-out: EC50 (with co-corrector).

Where two headings read alike, the source gives them in different places.

T1 sequence (P13569 with tags, fused parts or gaps DEL508-508): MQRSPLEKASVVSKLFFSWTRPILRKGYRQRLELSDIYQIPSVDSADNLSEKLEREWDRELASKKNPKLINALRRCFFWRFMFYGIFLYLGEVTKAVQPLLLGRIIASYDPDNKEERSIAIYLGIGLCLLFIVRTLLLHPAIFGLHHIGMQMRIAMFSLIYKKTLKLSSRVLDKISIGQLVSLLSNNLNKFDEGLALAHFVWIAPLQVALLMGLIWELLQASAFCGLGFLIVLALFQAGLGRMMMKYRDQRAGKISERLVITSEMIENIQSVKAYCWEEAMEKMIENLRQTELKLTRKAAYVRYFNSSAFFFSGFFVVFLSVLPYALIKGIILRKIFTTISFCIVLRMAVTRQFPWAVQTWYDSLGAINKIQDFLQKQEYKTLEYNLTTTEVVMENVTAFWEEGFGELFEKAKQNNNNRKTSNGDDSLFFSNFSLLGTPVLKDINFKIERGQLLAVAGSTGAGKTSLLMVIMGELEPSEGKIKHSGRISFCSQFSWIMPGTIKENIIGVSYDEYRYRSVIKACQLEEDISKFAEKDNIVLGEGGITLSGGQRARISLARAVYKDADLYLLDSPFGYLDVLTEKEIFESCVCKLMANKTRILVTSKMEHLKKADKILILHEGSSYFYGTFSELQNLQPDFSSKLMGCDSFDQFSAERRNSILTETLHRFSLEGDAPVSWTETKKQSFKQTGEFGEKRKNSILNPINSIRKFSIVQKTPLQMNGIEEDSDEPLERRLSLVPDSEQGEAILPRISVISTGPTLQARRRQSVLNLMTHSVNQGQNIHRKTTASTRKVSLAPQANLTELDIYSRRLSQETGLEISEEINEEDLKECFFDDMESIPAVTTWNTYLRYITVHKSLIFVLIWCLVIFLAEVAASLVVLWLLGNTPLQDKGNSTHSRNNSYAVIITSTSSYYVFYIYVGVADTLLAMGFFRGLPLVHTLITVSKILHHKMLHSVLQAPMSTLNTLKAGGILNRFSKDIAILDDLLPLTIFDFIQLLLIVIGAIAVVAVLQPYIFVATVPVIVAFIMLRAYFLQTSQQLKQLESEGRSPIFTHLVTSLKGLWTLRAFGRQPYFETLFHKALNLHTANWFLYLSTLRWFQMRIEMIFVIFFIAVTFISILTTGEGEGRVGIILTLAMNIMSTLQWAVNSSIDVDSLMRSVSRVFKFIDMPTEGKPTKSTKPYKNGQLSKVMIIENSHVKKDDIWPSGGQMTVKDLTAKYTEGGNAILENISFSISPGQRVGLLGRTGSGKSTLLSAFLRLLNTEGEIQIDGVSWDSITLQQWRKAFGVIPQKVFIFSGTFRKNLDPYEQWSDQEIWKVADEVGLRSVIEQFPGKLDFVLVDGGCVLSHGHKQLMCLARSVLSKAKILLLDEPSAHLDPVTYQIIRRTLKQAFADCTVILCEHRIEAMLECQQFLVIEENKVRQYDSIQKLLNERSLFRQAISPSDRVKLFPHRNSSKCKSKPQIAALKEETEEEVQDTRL

A word on the EC50: it is the midpoint of the concentration-response curve. Usually Emax stands for the size of the effect at its maximum, as opposed to the concentration needed. Regarding `CCC1(C(=O)NS(=O)(=O)c2cccc3ccccc23)COc2ccccc21` (centres unmarked) [Example 23, 3-ethyl-N-(naphthalene-1-sulfonyl)-2,3-dihydro-1-benzofuran-3-carboxamide], the “Maximum % activity (with co-corrector)” value is “++ (≥150 and <350)”. Further, under setting [1], the concentration giving a half-maximal response (EC50) was under 3 µM. Besides, under setting [2], the maximal response (Emax) was under 50%. Also, under setting [3], the 50% effective concentration (EC50) is under 3 µM.
With `O=C(NS(=O)(=O)c1cccc2ccccc12)C1CCOc2ccccc21` (centres unmarked) [Example 24, N-(naphthalene-1-sulfonyl)-3,4-dihydro-2H-1-benzopyran-4-carboxamide], the “Maximum % activity (with co-corrector)” value was “+++ (≥350)”. The concentration giving a half-maximal response (EC50) under setting [1] is 3 to 10 µM. This molecule came in with a maximum response (Emax) under setting [2] of 50 to 150%. For the same molecule, under setting [3], the EC50 was 3 to 10 µM.
As to `COc1cccc2c1OCC2C(=O)NS(=O)(=O)c1cccc2ccccc12` (centres unmarked) [Example 25, 7-methoxy-N-(naphthalene-1-sulfonyl)-2,3-dihydro-1-benzofuran-3-carboxamide], the “Maximum % activity (with co-corrector)” value was “++ (≥150 and <350)”. Further, the concentration giving a half-maximal response (EC50) under setting [1] was 3 to 10 µM. Under setting [2], this molecule had an Emax of under 50%. The EC50 under setting [3] lay within 3 to 10 µM.
As to `CC(C)c1ccc(S(=O)(=O)NC(=O)C2(C)Cc3ccccc3O2)cc1` (centres unmarked) [Example 26, 2-methyl-N-[4-(propan-2-yl)benzene-1-sulfonyl]-2,3-dihydro-1-benzofuran-2-carboxamide], the “Maximum % activity (with co-corrector)” value is reported as “+ (<150)”. The EC50 under setting [1] is at least 10 µM. The same molecule registered a maximal response (Emax) under setting [2] of under 50%. For the same molecule, under setting [3], the EC50 is at least 10 µM.
Consider `Cc1ccccc1S(=O)(=O)NC(=O)C1COc2ccc(Cl)cc21` (centres unmarked) [Example 27, 5-chloro-N-(2-methylbenzene-1-sulfonyl)-2,3-dihydro-1-benzofuran-3-carboxamide], for which the “Maximum % activity (with co-corrector)” value is “+ (<150)”. In addition, the 50% effective concentration (EC50) under setting [1] was at least 10 µM. Further, the maximum response (Emax) under setting [2] is under 50%. Also, the EC50 under setting [3] is at least 10 µM.
For `CCCS(=O)(=O)NC(=O)C1COc2ccc(Cl)cc21` (centres unmarked) [Example 28, 5-chloro-N-(propane-1-sulfonyl)-2,3-dihydro-1-benzofuran-3-carboxamide], the “Maximum % activity (with co-corrector)” value is recorded as “+ (<150)”. Also, the EC50 under setting [1] was at least 10 µM. The molecule further yielded an Emax under setting [2] of under 50%. For the same molecule, under setting [3], the EC50 is at least 10 µM.
Regarding `Cc1ccccc1S(=O)(=O)NC(=O)C1COc2ccccc21` (centres unmarked) [Example 29, N-(2-methylbenzene-1-sulfonyl)-2,3-dihydro-1-benzofuran-3-carboxamide], the “Maximum % activity (with co-corrector)” value is “+ (<150)”. Also, under setting [1], the half-maximal effective concentration (EC50) is at least 10 µM. Besides, the Emax under setting [2] is under 50%. Moreover, the EC50 under setting [3] was at least 10 µM.
Take `Cc1ccccc1S(=O)(=O)NC(=O)C1CCOc2ccccc21` (centres unmarked) [Example 30, N-(2-methylbenzene-1-sulfonyl)-3,4-dihydro-2H-1-benzopyran-4-carboxamide]: the “Maximum % activity (with co-corrector)” value was “+ (<150)”. Further, the EC50 under setting [1] is at least 10 µM. This molecule also yielded a maximal response (Emax) under setting [2] of under 50%. The EC50 under setting [3] was 3 to 10 µM.
Regarding `O=C(NS(=O)(=O)c1cccc2ccccc12)C1(c2ccccc2)C[C@@H](CN2CCCC2)Oc2ccccc21` (stereo partly drawn) [Example 31, (2S)—N-(naphthalene-1-sulfonyl)-4-phenyl-2-[(pyrrolidin-1-yl)methyl]-3,4-dihydro-2H-1-benzopyran-4-carboxamide], the “Maximum % activity (with co-corrector)” value is “++ (≥150 and <350)”. For the same molecule, under setting [1], the EC50 is at least 10 µM. This molecule also registered an Emax under setting [2] of under 50%. In addition, under setting [3], the 50% effective concentration (EC50) was 3 to 10 µM.
With `C[C@@]1(C(=O)NS(=O)(=O)c2cccc3ccccc23)COc2cc3c(cc21)OC(F)(F)O3` [Example 32, (7S)-2,2-difluoro-7-methyl-N-(naphthalene-1-sulfonyl)-6,7-dihydro-2H-furo[2,3-f][1,3]benzodioxole-7-carboxamide], the “Maximum % activity (with co-corrector)” value was “++ (≥150 and <350)”. Under setting [1], the half-maximal effective concentration (EC50) fell in the range of 3 to 10 µM. For the same molecule, the Emax under setting [2] was under 50%. For the same molecule, under setting [3], the EC50 was 3 to 10 µM.
`C[C@]1(C(=O)NS(=O)(=O)c2cccc3ccccc23)COc2cc3c(cc21)OC(F)(F)O3` [Example 33, (7R)-2,2-difluoro-7-methyl-N-(naphthalene-1-sulfonyl)-6,7-dihydro-2H-furo[2,3-f][1,3]benzodioxole-7-carboxamide]: the “Maximum % activity (with co-corrector)” value is “++ (≥150 and <350)”. Further, the EC50 under setting [1] was at least 10 µM. Also, the maximal effect (Emax) under setting [2] is under 50%. Besides, under setting [3], the EC50 is at least 10 µM.
As to `O=C(NS(=O)(=O)c1cccc2ccccc12)C1COc2ccccc21` (centres unmarked) [Example 34, N-(naphthalene-1-sulfonyl)-2,3-dihydro-1-benzofuran-3-carboxamide], the “Maximum % activity (with co-corrector)” value is given as “+ (<150)”. In addition, the EC50 under setting [1] was at least 10 µM. Under setting [2], the maximum response (Emax) was under 50%. The EC50 under setting [3] is at least 10 µM.
On to `COc1ccc(Br)c2c1[C@@H](C(=O)NS(=O)(=O)c1cccc3ccccc13)CCO2` [Example 35, (4S)-8-bromo-5-methoxy-N-(naphthalene-1-sulfonyl)-3,4-dihydro-2H-1-benzopyran-4-carboxamide], for which the “Maximum % activity (with co-corrector)” value is reported as “+++ (≥350)”. Under setting [1], the EC50 fell in the range of 3 to 10 µM. The molecule also yielded a maximum response (Emax) under setting [2] of 50 to 150%. Under setting [3], the half-maximal effective concentration (EC50) was in the range of 3 to 10 µM.
Regarding `COc1ccc(Br)c2c1[C@H](C(=O)NS(=O)(=O)c1cccc3ccccc13)CCO2` [Example 36, (4R)-8-bromo-5-methoxy-N-(naphthalene-1-sulfonyl)-3,4-dihydro-2H-1-benzopyran-4-carboxamide], the “Maximum % activity (with co-corrector)” value was “+++ (≥350)”. Besides, the EC50 under setting [1] was under 3 µM. Moreover, the maximal effect (Emax) under setting [2] was at least 150%. For the same molecule, the half-maximal effective concentration (EC50) under setting [3] was under 3 µM.
On to `COc1ccc(Br)c2c1OCC2C(=O)NS(=O)(=O)c1cccc2ccccc12` (centres unmarked) [Example 37, 4-bromo-7-methoxy-N-(naphthalene-1-sulfonyl)-2,3-dihydro-1-benzofuran-3-carboxamide], for which the “Maximum % activity (with co-corrector)” value is on record as “+++ (≥350)”. The concentration giving a half-maximal response (EC50) under setting [1] was 3 to 10 µM. Besides, under setting [2], the Emax is at least 150%. For the same molecule, the 50% effective concentration (EC50) under setting [3] was under 3 µM.
On the same counts, the results for `COc1cccc2c1C(C(=O)NS(=O)(=O)c1cccc3ccccc13)CC1(CCCCC1)O2` (centres unmarked) [Example 38, 5-methoxy-N-(naphthalene-1-sulfonyl)-3,4-dihydrospiro[1-benzopyran-2,1′-cyclohexane]-4-carboxamide] are “+++ (≥350)”, under 3 µM, at least 150% and under 3 µM.
For `COc1ccc(Br)c2c1C(C(=O)NS(=O)(=O)c1cccc3ccccc13)CO2` (centres unmarked) [Example 39, 7-bromo-4-methoxy-N-(naphthalene-1-sulfonyl)-2,3-dihydro-1-benzofuran-3-carboxamide], in that order: “+++ (≥350)”, under 3 µM, at least 150% and under 3 µM.
